This test deals with T1, JAK3 (Homo sapiens, UniProt P52333).
T1 sequence (P52333 1-1124): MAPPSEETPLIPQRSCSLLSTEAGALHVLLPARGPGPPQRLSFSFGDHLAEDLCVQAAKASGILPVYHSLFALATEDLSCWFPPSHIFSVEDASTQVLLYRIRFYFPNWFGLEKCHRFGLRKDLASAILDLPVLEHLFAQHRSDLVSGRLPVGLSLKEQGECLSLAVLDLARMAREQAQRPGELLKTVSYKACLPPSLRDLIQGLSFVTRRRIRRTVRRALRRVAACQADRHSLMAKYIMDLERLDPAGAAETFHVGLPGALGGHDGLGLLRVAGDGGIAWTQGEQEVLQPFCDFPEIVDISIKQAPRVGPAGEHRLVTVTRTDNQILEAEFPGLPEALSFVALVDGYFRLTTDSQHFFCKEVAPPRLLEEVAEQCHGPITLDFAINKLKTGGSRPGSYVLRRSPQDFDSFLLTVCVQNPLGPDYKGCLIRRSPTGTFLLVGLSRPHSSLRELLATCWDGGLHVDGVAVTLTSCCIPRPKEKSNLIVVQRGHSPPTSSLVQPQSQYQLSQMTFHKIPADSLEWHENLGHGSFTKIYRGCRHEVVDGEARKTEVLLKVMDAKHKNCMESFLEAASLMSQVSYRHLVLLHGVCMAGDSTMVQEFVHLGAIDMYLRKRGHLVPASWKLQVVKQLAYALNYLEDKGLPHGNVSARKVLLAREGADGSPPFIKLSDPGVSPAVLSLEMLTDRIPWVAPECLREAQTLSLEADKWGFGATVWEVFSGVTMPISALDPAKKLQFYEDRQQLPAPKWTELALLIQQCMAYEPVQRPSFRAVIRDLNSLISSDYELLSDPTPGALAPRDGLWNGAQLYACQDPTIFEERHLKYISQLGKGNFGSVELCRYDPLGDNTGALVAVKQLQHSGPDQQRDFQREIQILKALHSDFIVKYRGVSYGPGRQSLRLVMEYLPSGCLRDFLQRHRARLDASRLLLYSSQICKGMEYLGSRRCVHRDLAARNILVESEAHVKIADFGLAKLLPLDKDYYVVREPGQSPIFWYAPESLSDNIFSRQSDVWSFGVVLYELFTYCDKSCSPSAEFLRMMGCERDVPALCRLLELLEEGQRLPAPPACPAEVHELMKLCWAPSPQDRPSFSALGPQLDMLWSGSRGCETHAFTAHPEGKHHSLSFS
Put plainly: Kinobeads assay with antibody detection, JAK3. The settings on record: mixed Molt4/Ramos lysate, read-out: JAK3 inhibition value (IC50). Format: binding. Also on record: endogenous in cells; host or cells: mixed Molt4/Ramos cell lysate (1:2). On the procedure:
The compounds of the present invention as described in the previous examples were tested in a Kinobeads™ assay as described for ZAP-70 (WO-A 2007/137867). Briefly, test compounds (at various concentrations) and the affinity matrix with the immobilized aminopyrido-pyrimidine ligand 24 were added to cell lysate aliquots and allowed to bind to the proteins in the lysate sample. After the incubation time the beads with captured proteins were separated from the lysate. Bound proteins were then eluted and the presence of JAK1; JAK2, JAK3 and TYK2 was detected and quantified using specific antibodies in a dot blot procedure and the Odyssey infrared detection system. Dose response curves for individual kinases were generated and IC50 values calculated. Kinobeads™ assays for ZAP-70 (WO-A 2007/137867) and for kinase selectivity profiling (WO-A 2006/134056) have been previously described.
5×DP buffer: 250 mM Tris-HCl pH 7.4, 25% Glycerol, 7.5 mM MgCl2, 750 mM NaCl, 5 mM Na3VO4; filter the 5×DP buffer through a 0.22 μm filter and store in aliquot at −80° C. The 5×DP buffer is diluted with H2O to 1×DP buffer containing 1 mM DTT and 25 mM NaF.
Stock solutions of test compounds were prepared in DMSO. In a 96 well plate 30 μL solution of diluted test compounds at 5 mM in DMSO were prepared. Starting with this solution a 1:3 dilution series (9 steps) was prepared. For control experiments (no test compound) a buffer containing 2% DMSO was used.
Molt4 cells (ATCC catalogue number CRL-1582) and Ramos cells (ATCC catalogue number CRL-1596) were grown in 1 L Spinner flasks (Integra Biosciences, #182101) in suspension in RPMI 1640 medium (Invitrogen, #21875-034) supplemented with 10% Fetal Bovine Serum (Invitrogen) at a density between 0.15×10^6 and 1.2×10^6 cells/mL. Cells were harvested by centrifugation, washed once with 1×PBS buffer (Invitrogen, #14190-094) and cell pellets were frozen in liquid nitrogen and subsequently stored at −80° C. Cells were homogenized in a Potter S homogenizer in lysis buffer: 50 mM Tris-HCl, 0.8% NP40, 5% glycerol, 150 mM NaCl, 1.5 mM MgCl2, 25 mM NaF, 1 mM sodium vanadate, 1 mM DTT, pH 7.5. One complete EDTA-free tablet (protease inhibitor cocktail, Roche Diagnostics, 1873580) per 25 mL buffer was added. The material was dounced 10 times using a mechanized POTTER S, transferred to 50 mL falcon tubes, incubated for 30 minutes on ice and spun down for 10 minutes at 20,000 g at 4° C. (10,000 rpm in Sorvall SLA600, precooled). The supernatant was transferred to an ultracentrifuge (UZ)-polycarbonate tube (Beckmann, 355654) and spun for 1 hour at 100.000 g at 4° C. (33.500 rpm in Ti50.2, precooled). The supernatant was transferred again to a fresh 50 mL falcon tube, the protein concentration was determined by a Bradford assay (BioRad) and samples containing 50 mg of protein per aliquot were prepared. The samples were immediately used for experiments or frozen in liquid nitrogen and stored frozen at −80° C.
Cell lysate (approximately 50 mg protein per plate) was thawed in a water bath at room temperature and then stored on ice. To the thawed cell lysate 1×DP 0.8% NP40 buffer containing protease inhibitors (1 tablet for 25 mL buffer; EDTA-free protease inhibitor cocktail; Roche. Diagnostics 1873580) was added in order to reach a final protein concentration of 10 mg/mL total protein. The diluted cell lysate was stored on ice. Mixed Molt4Ramos lysate was prepared by combining one volume of Molt4 lysate and two volumes of Ramos lysate (ratio 1:2).
Plates were sealed and incubated for 3 hours in a cold room on a plate shaker (Heidolph tiramax 1000) at 750 rpm. Afterwards the plate was washed 3 times with 230 μL washing buffer (1×DP 0.4% NP40). The filter plate was placed on top of a collection plate (Greiner bio-one, PP-microplate 96 well V-shape, 65120) and the beads were then eluted with 20 μL of sample buffer (100 mM Tris, pH 7.4, 4% SDS, 0.00025% bromophenol blue, 20% glycerol, 50 mM DTT). […]

As to `CC(=O)Nc1cccc(Cn2ncc3cnc(Nc4cnn(C)c4)nc32)c1` [compound 2, N-(3-((6-((1-methyl-1H-pyrazol-4-yl)amino)-1H-pyrazolo[3,4-d]pyrimidin-1-yl)methyl)phenyl)acetamide, reference compound], the IC50 stood at 206 nM.

For `C=C(C)C(=O)Nc1cccc(Cn2ncc3cnc(Nc4cnn(C)c4)nc32)c1` [Example 5, N-(3-((6-((1-Methyl-1H-pyrazol-4-yl)amino)-1H-pyrazolo[3,4-d]pyrimidin-1-yl)methyl)phenyl)methacrylamide], the 50% inhibitory concentration (IC50) was 57 nM.

Turning to `C=CS(=O)(=O)Nc1cccc(Cn2ccc3cnc(Nc4cnn(C)c4)nc32)c1` [Example 7, N-(3-((2-((1-Methyl-1H-pyrazol-4-yl)amino)-7H-pyrrolo[2,3-d]pyrimidin-7-yl)methyl)phenyl)ethenesulfonamide], the IC50 worked out at 12 nM.

Regarding `C=CS(=O)(=O)Nc1cccc(Cn2ncc3cnc(Nc4cnn(C)c4)nc32)c1` [Example 4, N-(3-((6-((1-Methyl-1H-pyrazol-4-yl)amino)-1H-pyrazolo[3,4-d]pyrimidin-1-yl)methyl)phenyl)ethenesulfonamide], the IC50 came to 10 nM.

Regarding `C#CC(=O)Nc1cccc(Cn2ncc3cnc(Nc4cnn(C)c4)nc32)c1` [Example 3, N-(3-((6-((1-Methyl-1H-pyrazol-4-yl)amino)-1H-pyrazolo[3,4-d]pyrimidin-1-yl)methyl)phenyl)propiolamide], the IC50 was found to be 10 nM.

`C=CC(=O)Nc1cc(Cn2ncc3cnc(Nc4cnn(C)c4)nc32)ccc1F` [Example 2, […]]: the IC50 amounted to 16 nM.

For the molecule `C=CC(=O)Nc1cccc(Cn2ncc3cnc(Nc4cnn(C)c4)nc32)c1` [Example 1, N-(3-((6-((1-Methyl-1H-pyrazol-4-yl)amino)-1H-pyrazolo[3,4-d]pyrimidin-1-yl)methyl)phenyl)acrylamide], the IC50 is 5 nM.

The record behind these values is patent US20140323504A1, “Pyrazolo[4,3-c]Pyridine Derivatives As Kinase Inhibitors” (Cellzome Limited, priority 2011, published 2014).
